US10351613B2, “Polypeptide for inhibition of tumor” (G-Bio Pharma Tech Co., Ltd., priority 2015, dated 2019)
In brackets after ≈: the same amount, converted by molar mass. Residues, ends and D or L forms follow the SMILES beside them.

Experiments:
[1] = system: Human lung cancer A549 tumor model; assay: Inhibition on in vivo growth of tumor in combination with DDP, A549 model; conditions: for Tumor inhibitor rate (%): A549, day 21
Protocol: In vitro cultured tumor cells in exponential phase and in good state were formulated to a 100 μl cell suspension containing 5×10^6 tumor cells. The suspension was subcutaneously inoculated to nude mice. Well-grown solid tumors were obtained 15 days later and cut into uniform pieces of about 3 mm under sterile condition. Each nude mouse was inoculated by one piece through a trocar. Mice were re-grouped according the tumor size 10-14 days after inoculation and animals having too large and too small tumor were excluded from the test. […] Test drugs were administered to each group according to the experimental protocol. The major axis (a) and minor axis (b) of the tumor were measured twice a week. Animals were sacrificed at the end of the test. The tumor was taken out, weighed and photos were taken. Tumor volume (TV)=½×a×b^2; Relative tumor volume (RTV)=Vt/Vo, wherein Vo is the tumor volume measured before grouping (one day before administration of the test drug), and Vt is the tumor volume measured at each time. Tumor inhibition rate (%)=(1−T/C)×100%, wherein T is the average tumor volume of the treatment group and C is the average tumor volume of the negative control group.
The amino acid sequence of recombination endostatin (“endostatin”) was set forth in SEQ ID NO: 1, and the amino acid sequence of the marketed drug Endostar (“endostar”) was set forth in SEQ ID NO: 10. Human lung cancer A549 tumor model was constructed according to the method described in Example 10. The test contained 7 groups, with 6 animals in each group. The molar dose of the polypeptides was basically equal to the molar dose of endostatin.

SPC-A-1 (lung carcinoma) = assay type: cell-based
Protocol: (§1) Inhibition of cell growth was detected by a MTT method, which is based on the principle that succinate dehydrogenase in the mitochondria of the live cells could reduce the exogenous MTT (3-(4,5-dimethyl-2-thiazolyl)-2,5-diphenyl-tetrazolium bromide) to a […] Formazan which is a blue-violet crystal, and precipitates in the cells, while the death cells could not reduce MTT. DMSO could dissolve Formazan in the cells. Absorbance value of the solution was determined at 490/570 nm by microplate reader, which could indirectly indicate the amount of the live cells. The amount of the crystal from MTT is proportional to the amount of the cells within a certain range of cell number. The supernate from the HUVEC or tumor cells in exponential phase was removed and the cells were washed by PBS once. 1 ml 0.25% trypsin (4° C.) was added for digestion at 37° C. for 2 min. Then the supernate was added for neutralization and the cells were dispersed to form a suspension and the suspension was centrifuged at 1000 rpm for 3 min. The supernate was removed and 5 ml culture mediums were added for resuspension. Cells were inoculated in a 48-well plate by 500 ul/well at the concentration of 3×10^4/ml and then incubated under 5% CO2, 37° C. for 24 hours. The supernate was removed and a culture medium containing polypeptide (Zn^2+ in the culture medium was present at the concentration of 17.39 μmol/L) was added for further incubation for 48 hours. Supernate in each well was carefully removed. The well was gently washed by PBS once in an amount of 450 μl/well. 450 μl MTT culture mediums were added into each well for further cultivation for 4 hours. The supernate was carefully discarded. DMSO was added in an amount of 450 μl/well and then the plate was placed in a shaking bed for oscillation for 10 min in dark. 150 μl supernates were transferred to a 96-well ELISA plate and absorbance value of each well was detected at 490 nm and 570 nm by the microplate reader.
(§2) P2 (SEQ ID NO:2) and P2T2S18 (SEQ ID NO:6) were tested for their in vitro inhibition on SMMC7221, SPC-A-1, A549, LS174T, BEL7402, CK-MES-1 and BxPC-3 at a polypeptide concentration of 1 mg/ml according to the method described in Example 3. Results are shown in FIG. 9 and the following Table. […] All IC50 concentrations for P2T2S18 are less than 1/10 IC50 concentration of P2.

LS174T (Colon cancer) = assay type: cell-based
Protocol: as §1, §2

BEL7402 (Liver cancer) = assay: MTT in vitro inhibition of BEL7402; assay type: cell-based
Protocol: as §1, §2

SMMC7721 (Liver cancer) = assay: MTT in vitro inhibition of SMMC7721; assay type: cell-based
Protocol: as §1, §2

[2] = system: CK-MES-1 (lung squamous cell carcinoma); assay: MTT in vitro inhibition of CK-MES-1; assay type: cell-based
Protocol: as §1, §2

[3] = system: BxPC-3 (pancreatic cancer); assay: MTT in vitro inhibition of BxPC-3; assay type: cell-based
Protocol: as §1, §2

A549 (lung carcinoma) = assay: MTT in vitro inhibition of A549; assay type: cell-based
Protocol: as §1, §2

[4] = system: Human liver cancer BEL7404 tumor model; assay type: in vivo; conditions: BEL7404, day 21; polypeptides 15 mg/kg sc 2 times per day 21 days; endostatin/endostar 50 mg/kg sc; CTX 30 mg/kg ip 7 days
Protocol: In vitro cultured tumor cells in exponential phase and in good state were formulated to a 100 μl cell suspension containing 5×10^6 tumor cells. The suspension was subcutaneously inoculated to nude mice. Well-grown solid tumors were obtained 15 days later and cut into uniform pieces of about 3 mm under sterile condition. Each nude mouse was inoculated by one piece through a trocar. Mice were re-grouped according the tumor size 10-14 days after inoculation and animals having too large and too small tumor were excluded from the test. The average tumor volume for each group was basically identical. Test drugs were administered to each group according to the experimental protocol. The major axis (a) and minor axis (b) of the tumor were measured twice a week. Animals were sacrificed at the end of the test. The tumor was taken out, weighed and photos were taken. Tumor volume (TV)=½×a×b^2; Relative tumor volume (RTV)=Vt/Vo, wherein Vo is the tumor volume measured before grouping (one day before administration of the test drug), and Vt is the tumor volume measured at each time. Tumor inhibition rate (%)=(1−T/C)×100%, wherein T is the average tumor volume of the treatment group and C is the average tumor volume of the negative control group.
The amino acid sequence of recombination endostatin (“endostatin”) was set forth in SEQ ID NO: 1, and the amino acid sequence of the marketed drug Endostar (“endostar”) was set forth in SEQ ID NO: 10. Human liver cancer BEL7404 tumor model was constructed according to the method described in Example 10. The test contained 6 groups, with 6 animals in each group, except for the negative control group which contained 9 animals. The molar dose of the polypeptides was basically equal to the molar dose of endostatin. The results are shown in FIGS. 11a and 11b and the following Table.

tumor cell HepG2 = assay type: cell-based
Protocol: as §1

[5] = system: Human Umbilical Vein Endothelial Cell (HUVEC); assay type: cell-based
Protocol: 20 cm umbilical cord adjacent to fetus was taken, cleaned by washing, ligated at both ends, placed into 150 ml preservation solutions for umbilical cord, and stored in a 4° C. refrigerator for digestion for 6 hours. The umbilical cord was inspected to remove the damaged portion. The umbilical vein was thoroughly cleaned by washing and then 10 ml collagenase solution was injected. Then the umbilical vein was transferred to a 37° C. incubator for digestion for 15 minutes. The umbilical cord was removed and the digested solution was recovered. The digested solution was washed by PBS and centrifuged. After centrifugation, the cells were culture by re-suspension.
as §1

[6] = system: lung cancer cell line SPC-A-1; assay: In vitro death of SPC-A-1 tumor cell observed under optical microscope; assay type: cell-based; conditions: SPC-A-1, 2.5 mg/ml
Protocol: Polypeptides were tested for their effect in inducing cell death of lung cancer cell line SPC-A-1 at a polypeptide concentration of 2.5 mg/ml according to the method described in Example 3. Cells were observed under an optical microscope over 24 hours and photos were taken. P2 exerts its function 4 hours after being added into the culture medium. […] On the contrary, they extremely swelled. 4 hours later cells further swelled and began to disintegrate at 8 hours. […] The manner of P2T2S18 caused cell death is very surprising. Currently, it is unable to determine what manner this kind of cell death belongs to. No report is found in papers as well. However, this mode of cell death is obviously different from that caused by P2. Together with the results in Example 7, it can conclude that P2T2S18 not only has a biological activity obviously higher than P2, but also has a manner causing cell death obviously different from that of P2.

N.N.[Cl][Pt][Cl] [DDP, Cisplatin]
Tumor inhibitor rate (%) ([1]; DDP 2 mg/kg/day ip 7 days alone or with polypeptide 15 mg/kg or endostatin/endostar 50 mg/kg sc 2 times per day 21 days): 24.8% | Tumor inhibitor rate (%) ([1]; DDP 6 mg/kg/day ip 7 days (high dose)): 81.9% | animals with residual tumor ([1]; of 6 animals, combination with DDP 2 mg/kg, DDP alone 6 mg/kg): 6

CC[C@H](C)[C@H](NC(=O)CNC(=O)[C@H](CCCNC(=N)N)NC(=O)[C@H](CCSC)NC(=O)CNC(=O)CNC(=O)[C@H](CO)NC(=O)[C@H](CC(C)C)NC(=O)[C@@H]1CCCN1C(=O)[C@H](CO)NC(=O)[C@H](CC(N)=O)NC(=O)[C@H](CC(C)C)NC(=O)[C@H](C)NC(=O)[C@@H](NC(=O)[C@H](CC(C)C)NC(=O)[C@H](Cc1c[nH]cn1)NC(=O)[C@H](CC(C)C)NC(=O)[C@@H](NC(=O)[C@@H]1CCCN1C(=O)[C@H](CCC(N)=O)NC(=O)[C@H](Cc1ccccc1)NC(=O)[C@H](CC(=O)O)NC(=O)[C@H](CCCNC(=N)N)NC(=O)[C@H](Cc1c[nH]cn1)NC(=O)[C@H](CO)NC(=O)[C@H](Cc1c[nH]cn1)NC(C)=O)C(C)C)C(C)C)C(=O)N[C@@H](CCCNC(=N)N)C(=O)NCC(=O)N[C@@H](C)C(=O)N[C@@H](CC(=O)O)C(N)=O [Polypeptide P2] (Ac-HSHRDFQPVLHLVALNSPLSGGMRGIRGAD-NH2)
IC50 (SPC-A-1 (lung carcinoma); SPC-A-1): 1111.8 µg/mL (≈ 339 µM) | Cell Survival (%) at a polypeptide concentration of 1 mg/ml (SPC-A-1 (lung carcinoma); SPC-A-1, 1 mg/ml): 48% | IC50 (LS174T (Colon cancer)): 1683.8 µg/mL (≈ 513 µM) | Cell Survival (%) at a polypeptide concentration of 1 mg/ml (LS174T (Colon cancer); 1 mg/ml): 95% | IC50 (BEL7402 (Liver cancer); BEL7402): 732.9 µg/mL (≈ 223 µM) | Cell Survival (%) at a polypeptide concentration of 1 mg/ml (BEL7402 (Liver cancer); BEL7402, 1 mg/ml): 20% | IC50 (SMMC7721 (Liver cancer); SMMC7721): 1030.2 µg/mL (≈ 314 µM) | Cell Survival (%) at a polypeptide concentration of 1 mg/ml (SMMC7721 (Liver cancer); SMMC7721, 1 mg/ml): 42% | IC50 ([2]; CK-MES-1): 863.1 µg/mL (≈ 263 µM) | Cell Survival (%) at a polypeptide concentration of 1 mg/ml ([2]; CK-MES-1, 1 mg/ml): 42% | IC50 ([3]; BxPC-3): 860.9 µg/mL (≈ 262 µM) | Cell Survival (%) at a polypeptide concentration of 1 mg/ml ([3]; BxPC-3, 1 mg/ml): 40% | IC50 (A549 (lung carcinoma); A549): 1312.2 µg/mL (≈ 400 µM) | Cell Survival (%) at a polypeptide concentration of 1 mg/ml (A549 (lung carcinoma); A549, 1 mg/ml): 57% | Tumor inhibitor rate (%) [4]: 33.7% | IC50 (ug/ml) HepG2 (tumor cell HepG2): 1033.4 µg/mL (≈ 315 µM) | Cell Survival (%), 1 mg/ml of polypeptide, HepG2 (tumor cell HepG2; 1): 41% | IC50 (ug/ml) HUVEC [5]: 733.4 µg/mL (≈ 224 µM) | Cell Survival (%), 1 mg/ml of polypeptide, HUVEC ([5]; 1 mg/ml): 25% | time after being added into the culture medium at which the polypeptide acts on the cells [6]: 4 h | state of cells at 24 hours ([6]; 24 hours): basically died
